Measured values: US6946447B2, “MDM2-specific antisense oligonucleotides” (Hybridon, Inc., priority 1997, dated 2005)
Read-outs that look alike come from different tables or passages of the source. Strand notation (5' to 3'): a small letter for the sugar, then the base; units joined by * are phosphorothioate-linked, units joined directly phosphodiester-linked; [ ] holds rarer units or linkages, { } end groups; capitals alone tell only the bases. d = 2'-deoxy (DNA)

Key:
tumor cell lines [1] = experiment: Cell death / apoptosis in other cell lines; type: cell-based, human; conditions: H1299 cells (lack p53)
p53 [2] = experiment: p53-responsive BP100-luciferase reporter in JAR cells; type: cell-based, human
JAR cells [3] = experiment: Induction of apoptosis / cell death in JAR cells; type: cell-based, human; conditions: 400 nM
Experimental: JAR cells (ATCC) were grown in DMEM medium supplemented with 1% FBS according to standard cell culture techniques. Cells were then treated for 30 hours with growth medium containing 400 nM of either antisense oligonucleotide AS5 (SEQ ID NO:28) complementary to a portion of MDM2-encoding RNA or control oligonucleotide M4 (SEQ ID NO:5), and 7 μg/ml lipofectin (Gibco BRL Paisley, UK). Treated cells were then photographed using a phase contrast microscope.
JAR cells were treated for 24 hours as described in Example 6. Floating cells were harvested and chromosomal DNA was extracted according to standard techniques (Liu et al., Cell 86:147-157 (1996)). Purified DNA was then analyzed by agarose gel electrophoresis on a 2% agarose gel. Following electrophoresis the gel was stained with 0.5 μg/ml ethidium bromide.

MDM2 [4] = experiment: MDM2 protein level by immunoprecipitation/Western blot in oligonucleotide-treated cells; type: cell-based, human; conditions: JAR cells, 18 h, Lipofectin 7 μg/ml, Western blot (FIG. 2A)
tumor cell lines [5] = conditions: H1299 cells that lack p53; cited from earlier work
JAR cells [6] = conditions: cited from earlier work
p21/WAF1 [7] = conditions: optimal concentration 200 nM; cited from earlier work
p53-MDM2 complex = experiment: Co-immunoprecipitation of p53-MDM2 complex in JAR cells; type: cell-based, human
Source text: Protein lysates from JAR cells treated with antisense oligonucleotides as described in Example 1 were immunoprecipitated with anti-p53 monoclonal antibody Pab421 (FIGS. 4A and 4B) (Harlow et al. J. Virol. 39:861-869 (1981)) or with polyclonal antibody 2A10 (panel C) according to the methods described in Example 1. The gel was then transferred onto an Immobilon P membrane (Millipore, Bedford, Mass.) to detect MDM2 co-precipitates.

MDM2 [8] = conditions: JAR and SJSA cells, 100-400 nM, Lipofectin; cited from earlier work
MDM2 mRNA = experiment: Northern blot of MDM2 mRNA in JAR cells; type: cell-based, human; conditions: 200 nM, 18 h
Experimental: JAR cells were treated with 200 nM of antisense oligonucleotide AS5 (SEQ ID NO:28) with no oligonucleotide, with 200 nM of control oligonucleotide M4 (SEQ ID NO:5). After 18 hours, the treated cells were harvested and RNA was purified and quantitated according to standard methods. (see e.g., Current Protocols in Molecular Biology, John Wiley & Sons Inc. (1995)). Twenty μg of total RNA were run on a 1% agarose denaturing gel. MDM2 mRNA was detected by hybridization using an EcoRI-NcoI fragment specific for the human MDM2 cDNA between nucleotides 310-1633. The filter was then stripped and reprobed with a 1.2 kb fragment, which is a full length human GAPDH cDNA to normalize values on the basis of loading variations, according to standard methods.

[9] = test system: JAR-TK-luc and H1299-BP100-luc cells; experiment: Control luciferase reporters in JAR-TK-luc and H1299-BP100-luc cells; type: cell-based, human
Experimental: JAR cells stably transfected with a luciferase reporter driven by the thymidine kinase gene promoter (JAR-TK-luc) and H1299 cells containing no p53 that had been stably transfected with BP100-luciferase (H1299-BP1000-luc) were also tested. […] Similar results were also observed using AS5 in osteosarcoma SJSA cells (data not shown).

p21/WAF1 [10] = experiment: p21/WAF1 induction by Western blot in JAR cells; type: cell-based, human; conditions: 200 nM, relative to control-treated cells
Experimental: To assess the ability of the oligonucleotides of the invention to induce the expression of a p53-inducible gene, p21/WAF1 levels were examined in oligonucleotide-treated JAR cells. Total protein was purified from control oligonucleotide-treated cells and from antisense oligonucleotide-treated cells (200 nM oligonucleotide AS5) as described in Example 1. Equal amounts of purified total protein were immunoprecipitated and analyzed by Western blotting carried out for MDM2 detection using a polyclonal rabbit anti-human p21/WAF1 serum. Following hybridization, the blots were exposed to XAR film (Eastman Kodak, Rochester, N.Y.) and the autoradiograms are quantitated by phosphoroimaging.

p53 [11] = experiment: Nuclear p53 level by immunofluorescence staining with Pab1801; type: cell-based, human; conditions: MCF-7 cells, 200 nM, 20 hr

AS5: anti-MDM2 antisense PS-oligo SEQ ID NO:28, 5′-GATCACTCCCACCTTCAAGG-3′ (DNA dG*dA*dT*dC*dA*dC*dT*dC*dC*dC*dA*dC*dC*dT*dT*dC*dA*dA*dG*dG)
apoptosis (tumor cell lines [1]): did not cause visible apoptosis | induction of p53 activity among the initial antisense oligonucleotides tested (p53 [2]): most effective | activation of p53-responsive reporter expression (p53 [2]; JAR BP100-luc, 200 nM, 24 h): 7 fold | activation of the p53 reporter (p53 [2]; JAR BP100-luc, 48 h, AS5 200 nM, CPT alone, AS5 alone or co-incubation): 17 fold | chromosomal DNA cleavage in floating cells (JAR cells [3]; 24 h, agarose gel): nucleosomal-sized low molecular weight bands characteristic of apoptosis | cell death / apoptosis morphology (JAR cells [3]; 30 h, Lipofectin): induced significant cell death | inhibition of MDM2 expression (MDM2 [4]): 3-5 fold | apoptosis (tumor cell lines [5]): did not cause visible apoptosis | apoptosis (JAR cells [6]): significant increase in the levels of apoptosis | induction of p21 expression (p21/WAF1 [7]): up to 6.6 fold | total p53 levels (p53-MDM2 complex; JAR cells (FIG. 4A)): did not change | amount of MDM2 co-precipitated with p53 (p53-MDM2 complex; JAR cells (FIG. 4B)): reduced | decrease of MDM2 protein levels (MDM2 [8]): 3-5 fold | increase of MDM2 mRNA (MDM2 mRNA): 2.5 fold | molecular weight of the MDM2 mRNA band (MDM2 mRNA): slight decrease in the molecular weight of the MDM2 mRNA band | activation of reporter gene in control cells [9]: did not activate the reporter gene | induction of p21/WAF1 (p21/WAF1 [10]): up to 6.6 fold | nuclear p53 staining (p53 [11]): similar, but weaker
